Measurements from PMC9718777, “A growth selection system for the directed evolution of amine-forming or converting enzymes” (Nature Communications, 2022).

How the values were obtained:
[1] = molecular target: T1, PcPAL(wt), phenylalanine ammonia lyase (Petroselinum crispum, UniProt P24481); assay: specific activity; type: biochemical
T1 construct: gene PAL1

[2] = molecular target: T2, AtTA(wt), (R)-selective amine transaminase (Aspergillus terreus, UniProt Q0C8G1); assay: specific activity (benchmark substrate); type: biochemical
T2 construct: gene ATEG_10023
T2 sequence (Q0C8G1 1-325): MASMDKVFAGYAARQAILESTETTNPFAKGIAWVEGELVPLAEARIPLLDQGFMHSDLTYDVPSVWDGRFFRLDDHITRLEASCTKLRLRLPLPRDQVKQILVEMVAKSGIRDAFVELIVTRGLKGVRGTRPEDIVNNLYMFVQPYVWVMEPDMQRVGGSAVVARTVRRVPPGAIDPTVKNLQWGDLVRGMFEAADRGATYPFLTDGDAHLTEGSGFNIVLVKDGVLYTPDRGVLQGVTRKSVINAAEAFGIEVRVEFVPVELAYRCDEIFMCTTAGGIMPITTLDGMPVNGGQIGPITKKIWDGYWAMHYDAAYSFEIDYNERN

[3] = molecular target: T3, PcPAL(AI), phenylalanine ammonia lyase (Petroselinum crispum, UniProt P24481, L134A/L256I); assay: specific activity of purified variant (amination of […]); type: biochemical
T3 construct: gene PAL1; purified variant of full-length PcPAL, recombinant in E. coli; MIO-dependent homotetramer

C[C@H](N)c1cccc2ccccc12 = assay: purified protein; type: biochemical, Microbacterium oxydans; settings: FAD active site
[4] = molecular target: T4, AtTA(RHC), (R)-selective amine transaminase (Aspergillus terreus, UniProt Q0C8G1, H55R/F115H/E117C); assay: specific activity of purified variant with pyruvate; asymmetric synthesis; type: biochemical
T4 construct: gene ATEG_10023

[5] = molecular target: T2, AtTA(wt), (R)-selective amine transaminase; assay: specific activity of purified enzyme with pyruvate; type: biochemical
[6] = molecular target: T1, PcPAL(wt), phenylalanine ammonia lyase; assay: specific activity of purified enzyme; type: biochemical
purified protein = substrate: C[C@H](N)c1cccc2ccccc12; assay: purified protein; type: biochemical, Microbacterium oxydans; settings: FAD active site; remark: listed apart in the source

Question: `N[C@@H](Cc1ccccc1)C(=O)O` [ʟ-phenylalanine] was tested. Which specific activity [1] did it give?
Answer: The specific activity was 0.147 U/mg.

Question: For `C[C@@H](N)c1ccccc1` [(R)-1-phenylethylamine], which “specific activity (benchmark substrate)” value [2] is on record?
Answer: Its value is 2.9 U/mg.

Question: How did the “specific activity of purified variant (amination of 6)” value [3] turn out when `O=C(O)/C=C/c1cccc2ccccc12` [compound 6, 6] was run?
Answer: The value was 0.55 U/mg.

Question: For “CHAO(MVLM), cyclohexylamine oxidase (Microbacterium oxydans; L182V/M209L/T181M/Y304M)”, which Km (C[C@H](N)c1cccc2ccccc12) is on record?
Answer: Its Km is 2.2 mM.

Question: For `CC(C)(C)OC(=O)N1CCC[C@@H](N)C1` [(R)-1, (R)-1-Boc-3-aminopiperidine], which “specific activity of purified variant with pyruvate; asymmetric synthesis” value [4] is on record?
Answer: The value was 4.2 U/mg.

Question: And the “specific activity of purified enzyme with pyruvate” value [5]?
Answer: The value was 0.038 U/mg.

Question: `N[C@@H](Cc1cccc2ccccc12)C(=O)O` [(S)-5, (S)-2-amino-3-(naphthalen-1-yl)propanoic acid] was tested. Which “specific activity of purified enzyme” value [6] did it give?
Answer: Its value is 0.0027 U/mg.

B1: CHAO(wt), cyclohexylamine oxidase (Microbacterium oxydans) (protein)
chain: THLNTYESVTPDPDVDVIIIGAGISGSAAAKALHDQGASVLVVEANDRIGGRTWTEQEGAPGGPIDYGGMFIGETHTHLIELGTSLGLEMTPSGKPGDDTYIVAGNVLRAPDDQLDPNLPFVPEFLSSLKALDELADSVGWDQPWASPNAAALDSKTVATWLAETIESEEVRRLHTVIVNTLLGADPYEVSLLYWAYYVSECEGIQSLMGTRDGAQWAWWFGGAAQVSWRIADAIGRDKFLLEWPVDRIEHDESGVTLFSGQRSLRARHIVIAMSPLAANQIRFEPALPTSRAQLQARAPMGRYYKVQARYPSSFWVEQGYSGALLDTEDVGVFLLDGTKPTDTLATLIGFIGGSNYDRWAAHTPQERERAFLDLLVKAFGPQAADPSYFHETDWTQQEWAKGGPVTYMPPGVLANFGAALRDPVGKVHFAGTEASFQWSGYMEGGVRAGQKAAAAIAEELERTANKGALV
Question: B1 was tested. Which Km (purified protein) did it give?
Answer: The Km was 4.5 mM.
